We go through five compounds from patent US20090029972A1, “Dibenzodiazepinone Analogues, Processes for Their Production and Their Use as Pharmaceuticals” (Ecopia BioSciences Inc, priority 2004, published 2009).

As usually defined, the AUC is the area under the concentration-time curve, a measure of exposure. In general, GI50 refers to the concentration that inhibits growth by half. Higher therefore signals lower sensitivity of the cells.

Entries after “also recorded” stand apart in the source; their conditions may differ. Where only a bound is given, the exact number is not on record here.

Series [1] deals with C6 glioblastoma. Nature of the series: In vivo efficacy in glioma model, first series (treatment 24 hrs after inoculation). More on the design: species or system Mus musculus nude mice. The note with it: all treated groups (10-30 mg/kg i.p.), Anova and Dunnett's test. The method, then:
The aim of this study was to test whether Compounds 1 and 2 prevent or delay tumor growth in C6 glioblastoma cell-bearing mice, and to determine an effective dosage regimen.
Animal experiments were performed according to ethical guidelines of animal experimentation (Charte du comité d′éthique du CNRS, juillet 2003) and the English guidelines for the welfare of animals in experimental neoplasia (WORKMAN, P., […], P., BALKWILL, F., et al. (1998). United Kingdom Coordinating Committee on Cancer Research (UKCCCR) Guidelines for the welfare of animals in experimental neoplasia (Second Edition, July 1997; British Journal of Cancer, 77:1-10). Any dead or apparently sick mice were promptly removed and replaced with healthy mice. Sick mice were euthanized upon removal from the cage. […]
(§1) Tumor Cell Line: The C6 cell line was cloned from a rat glial tumor induced by N-nitrosomethyurea (NMU) according to Premont et al. (Premont J, Benda P, Jard S., [3H] norepinephrine binding by rat glial cells in culture. Lack of correlation between binding and adenylate cyclase activation. Biochim Biophys Acta. 1975 Feb. 13; 381(2):368-76.) after series of alternate culture and animal passages. […] The cells were counted in a hemocytometer and their viability assessed by 0.25% trypan blue exclusion. […]

Series [2] deals with C6 glioblastoma. Nature of the series: In vivo efficacy in glioma model, second series (treatment from day 10). The arrangement: species or system Mus musculus nude mice.
Excerpt: The aim of this study was to test whether Compounds 1 and 2 prevent or delay tumor growth in C6 glioblastoma cell-bearing mice, and to determine an effective dosage regimen. […]
as §1
In a second series of experiments, treatment started at day 10 following inoculation of C6 cells when tumors became palpable (around 100 to 200 mm^3). […] Tumor volume was measured every second day until the end of the treatment using callipers. […]

Series [3] in a line: Pharmacokinetic profiles, plasma. The settings on record: female, Crl: CD1, mouse, ip, 30 mg/kg. Type of series: in vivo, female Crl: CD1 mice. The method, then: Compounds 1 and 2 were separately dissolved in ethanol (5%), Polysorbate 80 (15%), PEG 400 (5%) and dextrose (5%) at a final concentration of 6 mg/ml (for all parenteral administration routes). For oral […], Compound 1 was solubilized in Cremophor® EL/Ethanol (50%:50%) at a final concentration of 6 mg/ml. Prior to dosing, animals (female Crl: CD1 mice; 6 weeks of age, 22-24 g) were weighed, randomly selected and assigned to the different treatment groups. Compound 1 was administered by the intravenous (iv), subcutaneous (sc), intraperitoneal (ip), or oral (po) route to the assigned animals. Compound 2 was administered by the intravenous (iv), or intraperitoneal (ip) route to the assigned animals. […] Samples were analysed by LC/MS/MS.
Plasma values of Compounds 1 and 2 falling below the limit of quantitation (LOQ) were set to zero.
The following pharmacokinetic parameters were calculated: area under the plasma concentration versus time curve from time zero to the last measurable concentration time point (AUC0-t), area under the plasma concentration versus time curve extrapolated to infinity (AUCinf), maximum observed plasma concentration (Cmax), time of maximum plasma concentration (tmax), apparent first-order terminal elimination rate constant (kel), apparent first-order terminal elimination half-life will be calculated as 0.693/kel (t1/2). […]

A short description of another series: in vivo. The note with it: CD-1 nu/nu, mouse, iv.
For series [4] the following is noted: for several days post-injection, ip and iv.
Series [5] deals with HT-29, SF268, MDA-MB-231 and PC-3 cell lines. Nature of the series: In vitro cytotoxic activity, four cell lines together (average, comparison). It is filed as cell-based. The settings on record: for anticancer activity compared with Compound 1: Table 12 cell lines. As for the experimental part:
(§2) Compounds were dissolved at 10 mM in DMSO. Dilution in vehicle to concentrations of 30, 10, 3, 1 and 0.3 μM were prepared immediately before assays. Depending on the cell line's growth characteristics, 4000-10000 cells were plated in two 96-wells pates (day 0) and incubated for 16 hours. The following day, propidium iodide was added to one of the two plates and fluorescence measured (Tz). Test compounds were added to the second plate, as well as vehicle control, and cells further incubated for 96 hours. Each compound was tested at each concentration and in triplicates. The equivalent cell number was determined after adding propidium iodide by measuring the signal by fluorescence (C for control).

For series [6], the system named is HT-29 (colorectal carcinoma). Nature of the series: In vitro cytotoxic activity GI50, method (a), HT-29. It is filed as cell-based. The note with it: Homo sapiens, 96 hours incubation, propidium iodide. As for the experimental part: as §2
The test system of the next series is SF268 (CNS). Nature of the series: In vitro cytotoxic activity GI50, method (a), SF-268. It is filed as cell-based. The note with it: Homo sapiens, 96 hours incubation, propidium iodide. As for the experimental part: as §2
In series [7] the test system is PC-3 (prostate adenocarcinoma). Nature of the series: In vitro cytotoxic activity GI50, method (a), PC-3. Type of series: cell-based. The note with it: 96 hours incubation, propidium iodide. The method, then:
as §2

For series [8], the system named is MDA-MB-231 (mammary gland adenocarcinoma). Nature of the series: In vitro cytotoxic activity GI50, method (a), MDA-MB-231. The note with it: Homo sapiens, 96 hours incubation, propidium iodide. It is filed as cell-based. The method, then:
as §2

Take `CC(C)=CCC/C(C)=C/CC/C(C)=C/CN1C(=O)c2cccc(O)c2Nc2c(O)cc(O)cc21` [Compound 1, 10-farnesyl-4,6,8-trihydroxy-5,10-dihydrodibenzo[b,e][1,4]diazepin-11-one]: the “mean value of the tumor volume of treated groups vs saline group” value is given as “significantly reduced” with C6 glioblastoma [1]; “significantly reduced” in the series with C6 glioblastoma [2] (all treated groups (20-30 mg/kg i.p.), Anova and Dunnett's test). In the series on C6 glioblastoma [2] (20-30 mg/kg, FIG. 3), the “Histological analysis of tumor sections” value was “cell density of tumor treated with Compound 1 appears decreased; also recorded: cell density was decreased and the nuclei of remaining tumor cells appeared larger and pycnotic”. The compound also showed an AUC in series [3] of 9.5 µM·h. This compound also displayed an MTD in the series “in vivo” of 150 mg/kg.
In the case of `CC(C)=CCC/C(C)=C/CC/C(C)=C/CN1C(=O)c2cccc(O)c2N(C)c2c(O)cc(O)cc21` [Compound 2, 10-farnesyl-4,6,8-trihydroxy-5-methyl-5,10-dihydro-dibenzo[b,e][1,4]diazepin-11-one], the weight losses result in series [4] is on record as “about 7%”. This compound displayed an MTD in “in vivo” of no less than 100 mg/kg.
As to `CC(C)CCCC(C)CCCC(C)CCN1C(=O)c2cccc(O)c2Nc2c(O)cc(O)cc21` (stereo not drawn) [Compound 23, 10-(3,7,11-trimethyldodecyl)-4,6,8-trihydroxy-5,10-dihydro-dibenzo[b,e][1,4]diazepin-11-one], in series [5], the “anticancer activity compared with Compound 1” value is reported as “generally more active than Compound 1”.
As for `CC(C)=CCC/C(C)=C/CC/C(C)=C/CN1C(=O)c2cccc(O)c2Nc2c1cc(O)c(Br)c2O` [Compound 24, 10-(farnesyl)-7-bromo-4,6,8-trihydroxy-5,10-dihydro-dibenzo[b,e][1,4]diazepin-11-one], the “anticancer activity compared with Compound 1” value in series [5] is given as “generally more active than Compound 1”.
For the compound `CC(=O)Oc1cc(OC(C)=O)c2c(c1)N(C/C=C(\C)CC/C=C(\C)CCC=C(C)C)C(=O)c1cccc(OC(C)=O)c1N2` [Compound 25, 4,6,8-triacetoxy-10-farnesyl-5,10-dihydro-dibenzo[b,e][1,4]diazepin-11-one], the GI50 in series [6] stood at 9.33 µM; in the series on SF268 (CNS) it was 1.95 µM; in series [7] it was 1.2 µM; in series [8], 2.79 µM; in series [5] (average of four cell lines, method (a)), 3.82 µM. For the same compound, the “anticancer activity compared with Compound 1” value in series [5] is “generally more active than Compound 1”.
